Values of other authors as cited in US9928346B1, “Test panel to measure blood neurotoxin levels in prematernal women and for the general public in relation to mental disorders of the aging” (priority 2016, dated 2018).
Where two headings read alike, the source gives them in different places.

Assays:
[1] = for Minimum Risk Level: blood levels
[2] = orally consumed, toxicology assessment
[3] = for an average man

| Compound | Minimum Risk Level [1] [microgram per liter] | Minimum Risk Level [2] [mg Al/kg body weight/day] | absorption by the intestines (digested aluminum) [%] | absorbed in the blood (intravenous injection from a vaccine) [%] | MRL for blood content ([1]; recommended by Mayo Clinic and Micro Trace Minerals diagnostic centers) [microgram/liter] | tentative dietary suggestions [3] |
| --- | --- | --- | --- | --- | --- | --- |
| [AsH3] [Arsenic, arsenic] | <10 | – | – | – | – | – |
| [Al] [Aluminum, aluminum] | <6 | 1.0 | 1 | 100 | < 6 | – |
| [Pb] [Lead, lead] | <50 | – | – | – | – | – |
| [Mn+2] [Manganese, manganese] | <18 | – | – | – | – | about 10 mg/day |
